Laboratory results: paper PMC10961089, “Epidermal growth factor receptor inhibition potentiates chemotherapeutics‐mediated sensitization of metastatic breast cancer stem cells” (Cancer Reports, 2024)

Tests used:
[1] = system: CD44, p‐EGFR, p‐JNK, p‐p38 in tumor tissue; assay: Immunohistochemical analysis of tumor tissue (colocalization with GFP, Pearson's correlation coefficient); format: in vivo, C57BL/6 mice
Procedure: Animal studies have been carried out with the prior approval of the Institutional Animal Ethics Committee (IICT/IAEC/025/2023). C57BL/6 female mice of age 6–8 weeks (N = 35) were initially immunosuppressed with cyclophosphamide (50 mg/kg of body weight, i.p) on alternate days for 2 weeks. For generating a preclinical orthotopic xenograft tumor model, 2 × 10^6 GFP expressing sorted stable CD24^+‐breast cancer cells and CD24^−/CD44^+‐breast CSCs were orthotopically xeno‐transplanted subcutaneously at the fourth mammary fat pad of immune‐suppressed mice (n = 5/group). Subsequently, intratumoral administration of Doxorubicin at a low dose (2.5 mg/kg of body weight), high dose (10 mg/kg of body weight), and/or combinatorial treatment of the potent EGFR inhibitor, compound 1e (50 mg/kg of body weight) or the commercial EGFR inhibitor, PD153035 (50 mg/kg of body weight) with a low dose of doxorubicin was performed to the palpable tumors of breast CSCs at day‐3 post‐transplantation.
Immunohistochemical analysis was performed by immunostaining the tissue serial sections with primary antibodies against GFP, CD44, p‐EGFR, p‐JNK, and p‐p38 (CST, USA) followed by alexafluor‐488/555 conjugated secondary antibodies (R&D systems, USA) and mounting medium containing DAPI.[28], [29] Images were captured using a confocal microscope (Olympus FV10i, Tokyo, Japan). Pearson's correlation coefficient was utilized to determine the co‐localization of GFP/CD44, GFP/p‐EGFR, GFP/p‐JNK, and GFP/p‐p38 (Table. ST3).

[2] = system: MDA‐MB‐231; assay: Cell migration (chemotaxis), Boyden-Chamber assay; format: cell-based, human; conditions: Doxorubicin 0.01 μM + compound 5 μM (PD153035 10 μM) vs 10% FBS and Doxorubicin alone
Procedure: (§1) TNBC cell lines—MDA‐MB‐231, MDA‐MB‐468, and the sorted CD24^+‐breast cancer cells, and CD24^−/CD44^+‐breast CSC populations from MDA‐MB‐231 [6] were seeded at a density of 1 × 10^6 cells/well to evaluate their migratory potential by Boyden‐Chamber assay. […] At the end of the treatment period, the cells were plated at a density of 5 × 10^3 cells/well in the upper chamber of the Boyden chamber assembly and 10% FBS in the lower chamber was used as a chemoattractant. Separately, the cells in the upper chamber were treated with Doxorubicin (0.01–0.1 μM) alone or with the potential EGFR inhibitors (compounds—1c, 1e, 1g, 1h, 1j, and 1k (5 μM) based on their low IC50 values) or a commercial EGFR inhibitor, PD153035 (10 μM) and incubated for 4 h followed by fixation and staining as described previously.[28], [29]

[3] = system: MDA‐MB‐468; assay: Cell migration (chemotaxis), Boyden-Chamber assay; format: cell-based, human; conditions: Doxorubicin 0.01 μM + compound 5 μM (PD153035 10 μM) vs 10% FBS and Doxorubicin alone
Procedure: as §1

SMILES: c1cncc(C(c2c[nH]c3ccccc23)c2c[nH]c3ccccc23)c1 [1e]
- colocalization of GFP/p‐EGFR ([1]; with doxorubicin low dose, CSC xenograft tumor tissue): decreased significantly
- activation of apoptotic signaling mediators (GFP/p‐JNK, GFP/p‐p38 colocalization) ([1]; with low dose doxorubicin, comparable with high dose doxorubicin alone): increased activation
- colocalization of GFP and CD44 (Pearson's correlation coefficient) ([1]; with low dose of doxorubicin, CSC xenograft tumor tissue): comparable to the high dose of doxorubicin treated group
- migratory potential [2]: significant decrease
- migratory potential [3]: significant decrease
